The target of one data set is Tubulin (Sus scrofa, UniProt P02554+P02550). Nature of the data set: Inhibition of pig brain tubulin polymerization by spectrophotometeric analysis. Also noted: species or system Sus scrofa domesticus.
Data set [1] has as its system HeLa. As to the kind of experiment: Induction of cell cycle arrest in human HeLa cells assessed as < 2N cells at 0.1 uM measured after 24 hrs by propidium iodide staining based flow cytometric analysis analysis ( Rvb = 7.07%). It is filed as functional. A general note: In flow cytometry, cells or beads pass a laser one at a time.
The test system of data set [2] is HeLa. As to the kind of experiment: Induction of cell cycle arrest in human HeLa cells assessed as < 2N cells at 0.2 uM measured after 24 hrs by propidium iodide staining based flow cytometric analysis analysis ( Rvb = 7.07%). The format is functional.
The test system of data set [3] is HeLa. As to the kind of experiment: Induction of cell cycle arrest in human HeLa cells assessed as 2N cells at 0.1 uM measured after 24 hrs by propidium iodide staining based flow cytometric analysis analysis ( Rvb = 47.4%). The format is functional.
Data set [4] concerns HeLa. As to the kind of experiment: Induction of cell cycle arrest in human HeLa cells assessed as S-phase at 0.2 uM measured after 24 hrs by propidium iodide staining based flow cytometric analysis analysis ( Rvb = 15.5%). It is filed as functional.
In data set [5] the test system is HeLa. Nature of the data set: Induction of cell cycle arrest in human HeLa cells assessed as S-phase at 0.4 uM measured after 24 hrs by propidium iodide staining based flow cytometric analysis analysis ( Rvb = 15.5%). The format is functional.
Data set [6] has as its system HeLa. As to the kind of experiment: Induction of cell cycle arrest in human HeLa cells assessed as 4N cells at 0.1 uM measured after 24 hrs by propidium iodide staining based flow cytometric analysis analysis ( Rvb = 20.3%). It is filed as functional.
In data set [7] the test system is HeLa. Nature of the data set: Induction of cell cycle arrest in human HeLa cells assessed as accumulation of cells at G2/M phase at 0.4 uM after 24 hrs by propidium iodide staining based flow cytometric analysis (reference value: 20.3%). The format is functional.
Data set [8] concerns HeLa. Nature of the data set: Induction of apoptosis in human HeLa cells assessed as early apoptotic cells at 0.1 uM measured after 24 hrs by Annexin V-FITC/7-AAD staining based flow cytometric analysis (reference value: 20.8%). The format is functional.
For data set [9], the system named is HeLa. As to the kind of experiment: Antimigratory activity against human HeLa cells at 0.4 uM measured after 24 hrs by scratch wound healing based fluorescence inverted microscopic analysis. The format is functional.
Data set [10] is described as follows: Resistant factor, ratio of IC50 for antiproliferative activity against human SiHa/DDP cells to IC50 for human SiHa cells. It is filed as functional.
Data set [11] can be described thus: Tmax in C57 nude mouse at 30 mg/kg, ip measured at 0.083 to 24 hrs by LC/MS/MS analysis. The format is ADME, organism-based. The following applies: in vivo, time 0.083-24 hrs.
Data set [12] in a line: Apparent clearance during terminal phase in C57 nude mouse at 30 mg/kg, ip measured at 0.083 to 24 hrs by LC/MS/MS analysis. The format is ADME, organism-based. The following applies: in vivo, time 0.083-24 hrs, read-out: CLz/F (converted).
A short description of data set [13]: Acute toxicity against ICR mouse assessed as glycogen deposition in liver at 1000 mg/kg, ip measured after 14 days by H and E staining method. The format is organism-based. The conditions noted are these: in vivo, 336 h, time 14 day.
Data set [14] is described as follows: Acute toxicity against ICR mouse assessed as inflammatory cell infiltration in liver at 1000 mg/kg, ip measured after 14 days by H and E staining method. The following applies: in vivo, 336 h, time 14 day. The format is organism-based.
In another data set the target is hERG (KCNH2) (Homo sapiens, UniProt Q12809). As to the kind of experiment: Inhibition of human ERG expressed in CHO cells at 40 uM with holding potential of -80 mV by whole cell patch clamp assay relative to control. The format is toxicity, cell-based. The conditions noted are these: CHO cells that express hERG. On the technique in general: Patch clamp records ionic current or voltage across a cell membrane.

The test system of data set [15] is HeLa. Nature of the data set: Antitumor activity against human HeLa cells xenografted in BABL/ mouse assessed as tumor growth inhibition at 60 mg/kg, ip administered daily for 21 days relative to control. The format is functional. The following applies: 504 h, time 21 day, read-out: TGI.
The subject of data set [16] is HeLa. As to the kind of experiment: Antitumor activity against human HeLa cells xenografted in BABL/c mouse assessed as tumor growth inhibition at 30 mg/kg, ip administered daily for 21 days followed by addition of 3 mg/kg DDP for every 2 days relative to control. The format is functional. The following applies: 504 h, time 21 day, read-out: TGI. A general note: Xenograft models place foreign cells or tissue in a host animal.

The subject of data set [17] is HeLa. Nature of the data set: Antitumor activity against human HeLa cells xenografted in BABL/c mouse assessed assessed as reduction in tumor volume at 30 mg/kg, ip administered daily for 21 days and measured every 3 days ( Rvb = 2336 mm3). The following applies: time 21 day. The format is functional.
Data set [18] is described as follows: Nephrotoxicity in BABL/c mouse assessed as increased urea nitrogen level at 30 mg/kg, ip administered daily for 21 days relative to vehicle. The format is toxicity, organism-based. The conditions noted are these: in vivo, 504 h, time 21 day.
Data set [19] in a line: Toxicity against BABL/c mouse assessed as morphological changes in heart at 30 to 60 mg/kg, ip administered daily for 21 days by H and E staining method. It is filed as organism-based. The conditions noted are these: in vivo, 504 h, dose 30-60 mg/kg, time 21 day.
Data set [20] can be described thus: Toxicity against BABL/c mouse assessed as morphological changes in heart at 30 mg/kg, ip administered daily for 21 days followed by addition of 3 mg/kg DDP for every 2 days by H and E staining method. It is filed as organism-based. The conditions noted are these: in vivo, 504 h, time 21 day.
Data set [21] in a line: Toxicity against BABL/c mouse assessed as morphological changes in liver at 30 mg/kg, ip administered daily for 21 days followed by addition of 3 mg/kg DDP for every 2 days by H and E staining method. The conditions noted are these: in vivo, 504 h, time 21 day. It is filed as organism-based.
A short description of data set [22]: Toxicity against BABL/c mouse assessed as morphological changes in lung at 30 to 60 mg/kg, ip administered daily for 21 days by H and E staining method. It is filed as organism-based. The following applies: in vivo, 504 h, dose 30-60 mg/kg, time 21 day.
In data set [23] the target is T1, Tubulin beta (Homo sapiens) (UniProt P68371+Q9H4B7+Q13509+P04350+Q3ZCM7+P07437+Q13885+Q9BVA1+Q9BUF5+A6NNZ2). As to the kind of experiment: Binding affinity to beta-tubulin colchicine binding site in human HeLa cells assessed as decrease of adduct formation by measuring gray value measured at 5 uM incubated for 2 hrs followed by addition of EBI measured after 1.5 hrs by EBI competition based Western blotting analysis. The following applies: time 3.5 hrs. The format is cell-based.

The target in data set [24] is T1, Tubulin beta (Homo sapiens). As to the kind of experiment: Binding affinity to beta-tubulin colchicine binding site in human HeLa cells assessed as decrease of adduct formation by measuring gray value measured at 50 uM incubated for 2 hrs followed by addition of EBI measured after 1.5 hrs by EBI competition based Western blotting analysis. The following applies: time 3.5 hrs. It is filed as cell-based.

A further data set concerns HUVEC. Nature of the data set: Vascular disruptive activity against HUVEC-formed vascular tube assessed as damage of vascular tube on matrigel substratum at 0.2 uM measured after 2 hrs. It is filed as functional, Homo sapiens.
The test system of data set [25] is HeLa. Nature of the data set: Induction of cell cycle arrest in human HeLa cells assessed as 2N cells at 6 nM measured after 24 hrs by propidium iodide staining based flow cytometric analysis analysis ( Rvb = 41.7%). The format is functional.
For data set [26], the system named is HeLa. Nature of the data set: Induction of cell cycle arrest in human HeLa cells assessed as 4N cells at 1.5 nM measured after 24 hrs by propidium iodide staining based flow cytometric analysis analysis ( Rvb = 17.1%). The format is functional.
Data set [27] deals with HeLa. As to the kind of experiment: Induction of apoptosis in human HeLa cells assessed as early apoptotic cells at 6 nM measured after 24 hrs by Annexin V-FITC/7-AAD staining based flow cytometric analysis (reference value: 18.8%). The format is functional.
The test system of data set [28] is HeLa. As to the kind of experiment: Induction of apoptosis in human HeLa cells assessed as necrotic cells at 1.5 nM measured after 24 hrs by Annexin V-FITC/7-AAD staining based flow cytometric analysis (reference value: 0.45%). It is filed as functional.
Data set [29] concerns HeLa. As to the kind of experiment: Antimigratory activity against human HeLa cells at 3 nM measured after 24 hrs by scratch wound healing based fluorescence inverted microscopic analysis. It is filed as functional.
Data set [30] deals with HeLa. Nature of the data set: Antimigratory activity against human HeLa cells at 6 nM measured after 24 hrs by scratch wound healing based fluorescence inverted microscopic analysis. It is filed as functional.

Sequence of hERG (KCNH2) (Q12809 whole entry): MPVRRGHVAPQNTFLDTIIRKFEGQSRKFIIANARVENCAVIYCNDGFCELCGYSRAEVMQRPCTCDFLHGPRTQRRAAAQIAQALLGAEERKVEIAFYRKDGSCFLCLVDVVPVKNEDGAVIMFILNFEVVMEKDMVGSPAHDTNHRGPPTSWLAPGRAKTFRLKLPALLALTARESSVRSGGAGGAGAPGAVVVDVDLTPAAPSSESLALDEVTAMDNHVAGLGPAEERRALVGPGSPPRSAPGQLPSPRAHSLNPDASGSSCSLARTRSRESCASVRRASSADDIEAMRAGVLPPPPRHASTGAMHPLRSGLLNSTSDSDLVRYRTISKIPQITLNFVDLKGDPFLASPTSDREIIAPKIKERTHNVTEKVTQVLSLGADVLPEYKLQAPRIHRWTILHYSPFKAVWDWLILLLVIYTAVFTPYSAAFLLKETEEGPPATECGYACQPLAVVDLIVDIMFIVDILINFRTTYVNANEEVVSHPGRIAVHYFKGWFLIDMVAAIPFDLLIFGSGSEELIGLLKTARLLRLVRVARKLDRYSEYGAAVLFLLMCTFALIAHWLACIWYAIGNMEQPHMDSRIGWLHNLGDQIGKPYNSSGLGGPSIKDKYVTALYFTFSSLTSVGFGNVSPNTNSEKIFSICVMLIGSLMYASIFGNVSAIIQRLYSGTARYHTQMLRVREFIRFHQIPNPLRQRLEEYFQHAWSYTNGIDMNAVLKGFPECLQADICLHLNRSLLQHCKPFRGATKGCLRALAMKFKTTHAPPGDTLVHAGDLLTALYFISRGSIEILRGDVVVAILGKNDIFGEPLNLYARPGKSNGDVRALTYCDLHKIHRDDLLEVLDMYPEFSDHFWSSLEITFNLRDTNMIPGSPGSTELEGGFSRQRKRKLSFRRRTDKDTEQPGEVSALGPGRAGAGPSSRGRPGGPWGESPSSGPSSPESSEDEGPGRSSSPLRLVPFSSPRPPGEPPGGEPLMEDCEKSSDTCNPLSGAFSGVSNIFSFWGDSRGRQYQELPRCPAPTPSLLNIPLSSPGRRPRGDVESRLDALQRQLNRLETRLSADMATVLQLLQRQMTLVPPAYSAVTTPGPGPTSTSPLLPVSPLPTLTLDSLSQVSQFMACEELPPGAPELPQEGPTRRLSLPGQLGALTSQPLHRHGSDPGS

Consider `CCOc1ccc(-c2cncnc2-c2cc(OC)c(OC)c(OC)c2)cc1Cl`, for which the IC50 (in general, the concentration that inhibits the measured activity by half) against Tubulin was found to be 4.6 µM. In addition, the Activity turned out to be 7.04% in the data set with HeLa [1]; 0.59% with HeLa [2]; 22.7% in the data set on HeLa [3]; 16.6% in the data set on HeLa [4]; 11.4% in the data set on HeLa [5]; 24.7% in the data set with HeLa [6]. Moreover, the Activity with HeLa [7] is recorded as 71.7%; in the data set on HeLa [8], 35.9%; with HeLa [9], 50%; in data set [13], “Non-Toxic”; in data set [14] it was “Non-Toxic”; with HeLa [17] it was 1578 mm3. The Activity was 1.3% in data set [18]; “Non-Toxic” in data set [19]; “Non-Toxic” in data set [20]; “Non-Toxic” in data set [21]; “Non-Toxic” in data set [22]; 0.59 in data set [23]. For the same compound, in [24], the Activity is 1.51. Further, the “Ratio IC50” value in data set [10] was determined as 41.9. Besides, the Tmax – broadly, the time from dosing to the highest level – in data set [11] came out at 15 min. Also, the CL/F in [12] is 84.2 mL/min/kg. Besides, the inhibition (in general, the drop in the measured response relative to a control, in per cent) at 40 µM against hERG (KCNH2) turned out to be 65%. For the same compound, the inhibition in vivo at 60 mg/kg with HeLa [15] turned out to be 58%. For the same compound, the inhibition in vivo at 30 mg/kg with HeLa [16] worked out at 73%.

For the compound `COc1ccc(/C=C\c2cc(OC)c(OC)c(OC)c2)cc1O` [COMBRETASTATIN A4], the Activity is given as 100% with HUVEC; 25.9% in the data set with HeLa [25]; 22.5% in the data set with HeLa [26]; 74.2% in the data set on HeLa [27]; 0.91% in the data set with HeLa [28]; 57% in the data set on HeLa [29]. In the data set with HeLa [30], this compound had an Activity of 73%.

These data come from ChEMBL document CHEMBL5154820 (Eur J Med Chem, 2022).
